According to patent US20060069132A1, “Azolecarboxamide herbicides” (priority 2004, published 2006):

Key:
blackgrass = experiment: Test B postemergence herbicide test; type: in vivo, Alopecurus myosuroides; conditions: postemergence, visual rating, scale 0 (no effect) to 100 (complete control)
Outline: (§1)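 Visual control ratings, 0–100 versus untreated controls, taken after 13 to 15 days in the greenhouse. Blackgrass received a postemergence spray at the 1- to 4-leaf stage (2–18 cm); ducksalad, umbrella sedge and barnyardgrass were flooded-paddy treated at 2 leaves.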

pigweed = experiment: Test B pre-/postemergence herbicide test; type: in vivo, Amaranthus retroflexus; conditions: for Pigweed plant response rating (0 to 100 scale) / Plant response rating, Pigweed: preemergence; for Pigweed plant response rating: postemergence, scale 0 (no effect) to 100 (complete control)
Outline: (§2)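 Formulation: non-phytotoxic solvent mix with surfactant. Timing: preemergence on seed and postemergence on 2–18 cm plants, applied concurrently. Readout after 13–15 d greenhouse: visual 0–100 control rating against controls.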

barnyardgrass = experiment: Test B pre-/postemergence herbicide test; type: in vivo, Echinochloa crus-galli; conditions: for Barnyardgrass plant response rating (0 to 100 scale) / Plant response rating, Barnyardgrass: preemergence; for Barnyardgrass plant response rating: postemergence, scale 0 (no effect) to 100 (complete control)
Outline: (§3)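 Response was scored visually 13 to 15 days after treatment against untreated greenhouse controls, 0 meaning no effect and 100 complete control. Formulations (solvent mixture plus surfactant) went onto soil after planting, onto foliage of 1- to 4-leaf plants, and onto 2-leaf plants in a flooded paddy set including rice and barnyardgrass.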

Surinam grass = experiment: Test B pre-/postemergence herbicide test; type: in vivo, Urochloa decumbens; conditions: for Surinam Grass plant response rating (0 to 100 scale) / Plant response rating, Surinam Grass: preemergence; for Surinam Grass plant response rating: postemergence, scale 0 (no effect) to 100 (complete control)
Outline: as §2

giant foxtail = experiment: Test B pre-/postemergence herbicide test; type: in vivo, Setaria faberi; conditions: for Foxtail, Giant plant response rating (0 to 100 scale) / Plant response rating, Foxtail, Giant: preemergence; for Foxtail, Giant plant response rating: postemergence, scale 0 (no effect) to 100 (complete control)
Outline: as §2

[1] = tested on: small flower umbrella sedge; experiment: Test B flooded paddy test; type: in vivo, Cyperus difformis; conditions: 1000 g ai/ha, visual rating, scale 0 to 100 (0 no effect, 100 complete control), 13 to 15 days
Outline: as §1

corn = experiment: Test B pre-/postemergence herbicide test; type: in vivo, Zea mays; conditions: for Corn plant response rating (0 to 100 scale) / Plant response rating, Corn: preemergence; for Corn plant response rating: postemergence, scale 0 (no effect) to 100 (complete control)
Outline: as §2

large crabgrass = experiment: Test B pre-/postemergence herbicide test; type: in vivo, Digitaria sanguinalis; conditions: for Crabgrass, Large plant response rating (0 to 100 scale) / Plant response rating, Crabgrass, Large: preemergence; for Crabgrass, Large plant response rating: postemergence, scale 0 (no effect) to 100 (complete control)
Outline: as §2

morningglory = experiment: Test B pre-/postemergence herbicide test; type: in vivo, Ipomoea coccinea; conditions: for Morningglory plant response rating (0 to 100 scale) / Plant response rating, Morningglory: preemergence; for Morningglory plant response rating: postemergence, scale 0 (no effect) to 100 (complete control)
Outline: as §3

wild oat = experiment: Test B postemergence herbicide test; type: in vivo, Avena fatua; conditions: postemergence, visual rating, scale 0 (no effect) to 100 (complete control)
Outline: (§4)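 Visual ratings, 0 (no effect) to 100 (complete control), made versus controls after 13–15 d greenhouse. Paddy plants treated at 2-leaf stage; postemergence plants at 1- to 4-leaf stage, 2–18 cm tall.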

wheat = experiment: Test B postemergence herbicide test; type: in vivo, Triticum aestivum; set-up: key to Wheat plant response rating: 0 = no effect, 100 = complete control; conditions: postemergence, visual rating, scale 0 (no effect) to 100 (complete control)
Outline: as §4

cocklebur = experiment: Test B pre-/postemergence herbicide test; type: in vivo, Xanthium strumarium; conditions: for Cocklebur plant response rating (0 to 100 scale) / Plant response rating, Cocklebur: preemergence; for Cocklebur plant response rating: postemergence, scale 0 (no effect) to 100 (complete control)
Outline: as §3

velvetleaf = experiment: Test B pre-/postemergence herbicide test; type: in vivo, Abutilon theophrasti; conditions: for Velvetleaf plant response rating (0 to 100 scale) / Plant response rating, Velvetleaf: preemergence; for Velvetleaf plant response rating: postemergence, scale 0 (no effect) to 100 (complete control)
Outline: as §2

lambsquarters = experiment: Test B pre-/postemergence herbicide test; type: in vivo, Chenopodium album; conditions: for Lambsquarters plant response rating (0 to 100 scale) / Plant response rating, Lambsquarters: preemergence; for Lambsquarters plant response rating: postemergence, scale 0 (no effect) to 100 (complete control)
Outline: as §2

[2] = 125 g ai/ha, 0 = no effect, 100 = complete control
[3] = 500 g ai/ha, visual rating 0-100, 0 no effect, 100 complete control
[4] = 500 g ai/ha, visual rating, 0 = no effect, 100 = complete control

CCc1nc(C(C)(C)C)sc1C(=O)Nc1cccc(C(=O)NCC2CC2)c1 [Compound 212]
Blackgrass plant response rating (blackgrass; 125 g ai/ha): 10
Blackgrass plant response rating (blackgrass; 500 g ai/ha): 20
Pigweed plant response rating (0 to 100 scale) (pigweed; [2]): 100
Plant response rating, Pigweed (pigweed; [3]): 100
Pigweed plant response rating (pigweed; 125 g ai/ha, visual rating): 60
Pigweed plant response rating (pigweed; 500 g ai/ha, visual rating): 90
Barnyardgrass plant response rating (0 to 100 scale) (barnyardgrass; [2]): 80
Plant response rating, Barnyardgrass (barnyardgrass; [3]): 90
Barnyardgrass plant response rating (barnyardgrass; 125 g ai/ha, visual rating): 10
Barnyardgrass plant response rating (barnyardgrass; 500 g ai/ha, visual rating): 20
Surinam Grass plant response rating (0 to 100 scale) (Surinam grass; [2]): 50
Plant response rating, Surinam Grass (Surinam grass; [3]): 70
Surinam Grass plant response rating (Surinam grass; 125 g ai/ha, visual rating): 30
Surinam Grass plant response rating (Surinam grass; 500 g ai/ha, visual rating): 60
Foxtail, Giant plant response rating (0 to 100 scale) (giant foxtail; [2]): 70
Plant response rating, Foxtail, Giant (giant foxtail; [3]): 100
Foxtail, Giant plant response rating (giant foxtail; 125 g ai/ha, visual rating): 10
Foxtail, Giant plant response rating (giant foxtail; 500 g ai/ha, visual rating): 40
Sedge, Umbrella plant response rating [1]: 70
Corn plant response rating (0 to 100 scale) (corn; [2]): 10
Plant response rating, Corn (corn; [3]): 30
Corn plant response rating (corn; 125 g ai/ha, visual rating): 20
Corn plant response rating (corn; 500 g ai/ha, visual rating): 40
Crabgrass, Large plant response rating (0 to 100 scale) (large crabgrass; [2]): 60
Plant response rating, Crabgrass, Large (large crabgrass; [3]): 100
Crabgrass, Large plant response rating (large crabgrass; 125 g ai/ha, visual rating): 10
Crabgrass, Large plant response rating (large crabgrass; 500 g ai/ha, visual rating): 10
Morningglory plant response rating (0 to 100 scale) (morningglory; [2]): 0
Plant response rating, Morningglory (morningglory; [3]): 60
Morningglory plant response rating (morningglory; 125 g ai/ha, visual rating): 10
Morningglory plant response rating (morningglory; 500 g ai/ha, visual rating): 50
Oat, Wild plant response rating (wild oat; 125 g ai/ha): 20
Oat, Wild plant response rating (wild oat; 500 g ai/ha): 20
Wheat plant response rating (wheat; 125 g ai/ha): 10
Wheat plant response rating (wheat; 500 g ai/ha): 20
Cocklebur plant response rating (0 to 100 scale) (cocklebur; [2]): 0
Plant response rating, Cocklebur (cocklebur; [3]): 50
Cocklebur plant response rating (cocklebur; 125 g ai/ha, visual rating): 80
Cocklebur plant response rating (cocklebur; 500 g ai/ha, visual rating): 90
Velvetleaf plant response rating (0 to 100 scale) (velvetleaf; [2]): 10
Plant response rating, Velvetleaf (velvetleaf; [3]): 80
Velvetleaf plant response rating (velvetleaf; 125 g ai/ha, visual rating): 50
Velvetleaf plant response rating (velvetleaf; 500 g ai/ha, visual rating): 70
Lambsquarters plant response rating (0 to 100 scale) (lambsquarters; [2]): 100
Plant response rating, Lambsquarters (lambsquarters; [3]): 100
Lambsquarters plant response rating (lambsquarters; 125 g ai/ha, visual rating): 90
Lambsquarters plant response rating (lambsquarters; 500 g ai/ha, visual rating): 100

CCc1nc(C(C)(C)C)sc1C(=O)Nc1cccc(C(=O)NC(C)(C)C)n1 [Compound 216]
Blackgrass plant response rating (blackgrass; 125 g ai/ha): 0
Blackgrass plant response rating (blackgrass; 500 g ai/ha): 0
Pigweed plant response rating (0 to 100 scale) (pigweed; [2]): 0
Plant response rating, Pigweed (pigweed; [4]): 90
Pigweed plant response rating (pigweed; 125 g ai/ha, visual rating): 0
Pigweed plant response rating (pigweed; 500 g ai/ha, visual rating): 20
Barnyardgrass plant response rating (0 to 100 scale) (barnyardgrass; [2]): 0
Plant response rating, Barnyardgrass (barnyardgrass; [4]): 40
Barnyardgrass plant response rating (barnyardgrass; 125 g ai/ha, visual rating): 0
Barnyardgrass plant response rating (barnyardgrass; 500 g ai/ha, visual rating): 10
Surinam Grass plant response rating (0 to 100 scale) (Surinam grass; [2]): 0
Plant response rating, Surinam Grass (Surinam grass; [4]): 70
Surinam Grass plant response rating (Surinam grass; 125 g ai/ha, visual rating): 0
Surinam Grass plant response rating (Surinam grass; 500 g ai/ha, visual rating): 20
Foxtail, Giant plant response rating (0 to 100 scale) (giant foxtail; [2]): 0
Plant response rating, Foxtail, Giant (giant foxtail; [4]): 60
Foxtail, Giant plant response rating (giant foxtail; 125 g ai/ha, visual rating): 0
Foxtail, Giant plant response rating (giant foxtail; 500 g ai/ha, visual rating): 20
Sedge, Umbrella plant response rating [1]: 90
Corn plant response rating (0 to 100 scale) (corn; [2]): 0
Plant response rating, Corn (corn; [4]): 0
Corn plant response rating (corn; 125 g ai/ha, visual rating): 0
Corn plant response rating (corn; 500 g ai/ha, visual rating): 10
Crabgrass, Large plant response rating (0 to 100 scale) (large crabgrass; [2]): 0
Plant response rating, Crabgrass, Large (large crabgrass; [4]): 40
Crabgrass, Large plant response rating (large crabgrass; 125 g ai/ha, visual rating): 0
Crabgrass, Large plant response rating (large crabgrass; 500 g ai/ha, visual rating): 0
Morningglory plant response rating (0 to 100 scale) (morningglory; [2]): 0
Plant response rating, Morningglory (morningglory; [4]): 0
Morningglory plant response rating (morningglory; 125 g ai/ha, visual rating): 0
Morningglory plant response rating (morningglory; 500 g ai/ha, visual rating): 0
Oat, Wild plant response rating (wild oat; 125 g ai/ha): 0
Oat, Wild plant response rating (wild oat; 500 g ai/ha): 0
Wheat plant response rating (wheat; 125 g ai/ha): 0
Wheat plant response rating (wheat; 500 g ai/ha): 10
Cocklebur plant response rating (0 to 100 scale) (cocklebur; [2]): 0
Plant response rating, Cocklebur (cocklebur; [4]): 0
Cocklebur plant response rating (cocklebur; 125 g ai/ha, visual rating): 0
Cocklebur plant response rating (cocklebur; 500 g ai/ha, visual rating): 70
Velvetleaf plant response rating (0 to 100 scale) (velvetleaf; [2]): 0
Plant response rating, Velvetleaf (velvetleaf; [4]): 0
Velvetleaf plant response rating (velvetleaf; 125 g ai/ha, visual rating): 0
Velvetleaf plant response rating (velvetleaf; 500 g ai/ha, visual rating): 60
Lambsquarters plant response rating (0 to 100 scale) (lambsquarters; [2]): 90
Plant response rating, Lambsquarters (lambsquarters; [4]): 100
Lambsquarters plant response rating (lambsquarters; 125 g ai/ha, visual rating): 0
Lambsquarters plant response rating (lambsquarters; 500 g ai/ha, visual rating): 0
